From article PMC6727188, “Image-Based Investigation: Biorelevant Solubility of α and γ Indomethacin” (Analytical Chemistry, 2019)
Values after ≈ are worked out from the molar mass of the structure shown.

Experiments:
[1] = Estimation of the free-energy difference between polymorphs from DSC melting data; type: physicochemical; conditions: estimated from DSC melting data, extrapolated to room temperature
Description: DSC experiments were performed using a DSC823e (Mettler-Toledo, Greifensee, Switzerland) equipped with a refrigerated cooling system (Julabo FT 900, Seelbach, Germany). Nitrogen was used as a purge gas (50 mL/min).
Samples (2–5 mg) were tightly packed into standard aluminum crucibles (40 μL) with pierced lids. Two different procedures were used in these measurements. For determination of melting temperature and enthalpy, the samples were equilibrated at 25 °C for 3 min and then linearly heated with a heating rate of 10 °C/min to 180 °C. For determination of heat capacities, the samples were equilibrated at 140 °C and then heated up to 180 °C using a TOPEM-modulated heating program with a heating rate of 1 °C/min and a pulse height of 1 °C. Samples were measured in triplicate, and thermal events were analyzed using STARe software (Mettler-Toledo, Greifensee, Switzerland). Temperatures of melting, enthalpies of melting, and heat capacities were used to estimate the free-energy difference between the α and γ polymorphs.
The free-energy difference between two polymorphs can be estimated from their melting data or their respective solubility values. […]

[2] = parameters: method as in ref 9 (Hancock et al.); conditions: 200 mL deionized water, 45 °C; ref 9 (Hancock et al.); cited from earlier work
[3] = physchem; type: physicochemical; conditions: for solubility: thermodynamic from solid, Shake-flask solubility
Description: The solubilities of α and γ indomethacin were measured by the conventional shake-flask method in HCl (pH 1.6), FaSSGFblk, and FeSSIFblk. A detailed description of the methodology can be found in the Supporting Information on page S-2.
Effect of particle morphology on the solubility values measured by the SPA method was assessed by the
MatLab® regionprops toolbox. Three morphology-describing parameters were extracted; namely:
eccentricity, major axis length and minor axis length. The morphology parameters were then plotted against
solubility values of individual particles (Figure S1 and Figure S2). No specific effect of particle morphology
on solubility, in the size range studied (5-25 µm), was found.
Shake-flask solubility measurements
Indomethacin α and γ samples were placed in excess amount into vials. The vials were filled with HCl,
FaSSGFblk and FeSSIFblk media and left to stir on a rotating machine. This procedure was repeated in
triplicate for both solid-state forms and the three media. After 24h, 48h and 72h samples of 2 mL were
extracted and filtered (Whatman™ PVDF 13 mm with 0.45 µm pore size). After filtration, the samples of α
indomethacin were diluted four times with the corresponding medium […]
The drug concentration in the samples was determined using an Agilent High Performance Liquid
Chromatography (HPLC) 1260 system (Agilent Technologies, Germany). The Phenomenex Gemini NX-
C18, 3 µm, 100 x 4.6 mm column (Phenomenex, Torrance, CA) was used in the assays. The temperature of
the column was set to 30°C. Mobile phase used was 0.2% H3PO4:Acetonitrile (40:60, v:v) with flow rate of
1.5 mL/min. Injection volume was 20 µL and total run time 5 min. Detection was preformed at 270 nm.
Standard solutions of indomethacin in MilliQ:Ethanol (50:50, v:v) were prepared and analyzed with HPLC
to construct the calibration curve. All samples were analyzed in triplicate: 0.1, 0.5, 1, 10, 50 and 100 µg/mL
After 72h, the remaining excess solids, from vials were initially α form of indomethacin was placed, were
filtered and dried overnight in a vacuum oven. The next day, the excess solids were analyzed by XRPD and
XRPD diffractograms of the
remaining solids are presented in the Figure S3 and DSC thermograms in the Figure S4.
When comparing the shake-flask solubility values to the SPA solubility values, they are in the same rank
order and within the generally accepted interlaboratory variance, 0.6 log units.32 Moreover, a slight shift of
XRPD peaks to the left and appearance of a small melting peak at 159.3°C ± 0.1°C in the DSC thermograms
of the remaining excess solid samples indicate a presence of γ form (Figure S3 and S4). The presence of γ
form, in vials were initially pure α form was placed, would result in lower solubility ratio of α to γ solubility
measured by shake-flask method (1.7 ± 0.4) when compared to the ratio obtained by the SPA method (3.3 ±
0.5). With the SPA method, the actual solubility of the metastable α form was measured before any possible
solid-state transformation occurred that could affect the measurement. This was achieved by starting the
measurement as soon as the solvent came in contact with the sample and also by maintaining the sink
conditions in the flow-through cell.

[4] = Image-based single-particle-analysis (SPA) solubility measurement in a flow-through setup; type: physicochemical; conditions: for solubility ratio (RS) FaSSGF/FaSSGFblk / solubility ratio (RS) FaSSGF/HCl / solubility ratio (RS) FaSSGFblk/HCl / solubility ratio (RS) FeSSIF/FeSSIFblk: same solid-state form in different media
Description: Dissolution experiments utilizing the SPA method were performed using a custom-made flow-through setup (Figure 1). The experiments were conducted at room temperature (22 °C) rather than at 37 °C in order to ensure controlled experimental conditions. The setup enables the trapping of particles under constant-flow conditions. In this way, dissolved molecules are continuously extracted from the chamber, and sink conditions are maintained. As the measurement can be started as soon as the solvent comes in contact with the entrapped particles, the actual solubility of a metastable form can be measured before any possible solid-state transformation occurs that could affect the solubility. In eq 1, at sink conditions, bulk concentration (Cb) can be disregarded because it is practically zero. This means the dissolution rate (dm/dt) is dependent only on the equilibrium solubility at the interface (CS); k is the setup-dependent transport-rate constant determined as described by Svanbäck.[20] [drawing 1] 1 For a single measurement, approximately 10 mL of dissolution medium and less than 0.1 mg of sample were used. Online images were acquired over 15 min through the transparent part of the flow-through chamber using a USB microscope (Gigastone S1-100, Irvine, CA). At least five particles per solid-state form per medium were measured. For the analysis of the image data, a MatLab script was previously developed by Svanbäck and co-workers.[20],[22] The script enables quantification of the particle’s morphology change (i.e., dissolution rate) and, consequently, calculation of the solubility according to eq 1.

[5] = parameters: method as in ref 15 (Fagerberg and co-workers); conditions: 37 °C, μDISS profiler; ref 15 (Fagerberg and co-workers); cited from earlier work
[6] = SPA method, FaSSGF pH 1.6, 22 °C
[7] = SPA method, FaSSGFblk (blank FaSSGF) pH 1.6, 22 °C
[8] = SPA method, FeSSIF pH 5.0, 22 °C
[9] = SPA method, FeSSIFblk (blank FeSSIF) pH 5.0, 22 °C

SMILES	solubility [4, 6] [µg/mL]	solubility [4, 7] [µg/mL]	solubility [4, 8] [µg/mL]	solubility [4, 9] [µg/mL]	solubility ratio (RS) FaSSGF/FaSSGFblk ([4]; SPA method)	solubility ratio (RS) FaSSGF/HCl ([4]; SPA method)	solubility ratio (RS) FaSSGFblk/HCl ([4]; SPA method)	solubility ratio (RS) FeSSIF/FeSSIFblk ([4]; SPA method)	other results
COc1ccc2c(c1)c(CC(=O)O)c(C)n2C(=O)c1ccc(Cl)cc1 [α form, indomethacin]	0.29 ± 0.16 (≈ 0.811 µM)	0.14 ± 0.09 (≈ 0.391 µM)	15.7 ± 10.4 (≈ 43.9 µM)	2.79 ± 1.67 (≈ 7.8 µM)	2.1	0.9	0.4	5.6	free-energy difference ΔG between the α and γ polymorphs [1]: 12 ± 7 J/g; α- to γ-solubility ratio [2]: 1.1; free-energy difference ΔG between the α and γ polymorphs [3]: 0.311 kcal/mol; ratio of α- to γ-solid-state-form solubility [3]: 1.7 ± 0.4; solubility ([3]; pH 1.6, fassgf or other biorelevant): 0.5 ± 0.2 µg/mL (≈ 1.4 µM); solubility ([3]; pH 1.6, simulated gastric fluid): 0.6 ± 0.1 µg/mL (≈ 1.68 µM); solubility ([3]; pH 5, fassgf or other biorelevant): 9 ± 0.2 µg/mL (≈ 25.2 µM); solubility ([4]; SPA method, HCl pH 1.6, 22 °C): 0.34 ± 0.20 µg/mL (≈ 0.95 µM); ratio of α- to γ-solid-state-form solubility ([4]; SPA method, constant in all studied media (HCl, FaSSGFblk, FaSSGF, FeSSIFblk, FeSSIF)): 3.3 ± 0.5; free-energy difference ΔG between the α and γ polymorphs ([4]; from the SPA solubility ratios, molar units): 0.693 kcal/mol; free-energy difference ΔG between the α and γ polymorphs ([4]; from the α- to γ-solubility ratio obtained with the SPA method (eq 7), ambient temperature): 8 ± 1 J/g
COc1ccc2c(c1)c(CC(=O)O)c(C)n2C(=O)c1ccc(Cl)cc1 [γ form, indomethacin]	0.10 ± 0.02 (≈ 0.279 µM)	0.04 ± 0.03 (≈ 0.112 µM)	3.80 ± 1.74 (≈ 10.6 µM)	0.94 ± 0.58 (≈ 2.63 µM)	2.5	1.0	0.4	4.0	fold increase in solubility from FeSSIFblk to FeSSIF [5]: 7.3 fold; Shake-flask solubility ([3]; pH 1.6): 0.3 ± 0.1 µg/mL; Shake-flask solubility ([3]; pH 5): 6.4 ± 0.1 µg/mL; solubility ([4]; SPA method, HCl pH 1.6, 22 °C, listed as Indomethacin γ): 0.10 ± 0.05 µg/mL (≈ 0.279 µM)
